Reference: patent US11998610B2, “Conjugates and methods of using the same” (Flagship Pioneering Innovations V, Inc., priority 2018, dated 2024)
Non-standard residues stand in square brackets, D forms with d. Residues, ends and D or L forms follow the SMILES beside them. *: point of attachment. PhAc = O=C(Cc1ccccc1)*

How the values were obtained:
[1] = Stability of conjugates in Simulated Gastric Fluid (SGF); assay type: in vitro ADME; conditions: simulated gastric fluid pH 1.6 with pepsin, 1 μM, 37° C.
Experimental: Assay 1. Stability of conjugates in Simulated Gastric Fluid (SGF). This assay was used to assess the stability of a conjugate in a stomach. Medium was prepared by dissolving 2 g of sodium chloride in 0.6 L in ultrapure water (MilliQ®, Millipore Sigma, Darmstadt, Germany). The pH was adjusted to 1.6 with 1N hydrochloric acid, and the volume was then adjusted to 1 L with purified water. 60 mg FaSSIF powder (Biorelevant™, London, UK) were dissolved in 500 mL buffer (above). Pepsin was added (0.1 mg/mL) (Millipore Sigma, Darmstadt, Germany), and the solution was stirred. The resulting SGF media were used fresh for each experiment. Test compounds were dissolved in DMSO stock to 1 mM. An aliquot of the DMSO stock solution was removed and diluted in the SGF Media in 15 mL falcon tubes to generate a total compound concentration of 1 μM. A 1 mL aliquot was immediately removed and diluted once with 1 volume of acetonitrile for T0 timepoint. The mixture was sealed and mixed at 37° C. in an incubator. Aliquots (1 mL) were removed at regular intervals and immediately quenched by the addition of 1 volume of acetonitrile. The resulting samples were analyzed by LC/MS to determine degradation rates in SGF.

[2] = Stability of conjugates in Simulated Intestinal Fluid (SIF); assay type: in vitro ADME; conditions: simulated intestinal fluid pH 6.7 with pancreatin, 1 μM, 37° C.
Experimental: Assay 2. Stability of conjugates in Simulated Intestinal Fluid (SIF). This assay was used to assess the stability of a conjugate in a small intestine. Phosphate buffer was prepared by dissolving 0.42 g of sodium hydroxide pellets and 3.95 g of monobasic sodium phosphate monohydrate and 6.19 g of sodium chloride in ultrapure water (MilliQ®, Millipore Sigma, Darmstadt, Germany). The pH was adjusted to 6.7 using aq. HCl and aq. NaOH, as necessary, and the solution was diluted with ultrapure water to produce 1 L of the pH 6.7 buffer. 112 mg FaSSIF powder (Biorelevant™, London, UK) was dissolved in 50 mL of the pH 6.7 buffer. 2 to 3 mL of the resulting solution were then added to 500 mg pancreatin (Millipore Sigma, Darmstadt, Germany). The resulting mixture was agitated by finger tapping the vessel containing the mixture until milky suspension formed. At this time, the remainder of the 50 mL FaSSiF/pH 6.7 buffer solution was added. The resulting suspension was flipped upside down 10 times to produce SIF, which was used fresh. Test compounds were dissolved in DMSO stock to 1 mM. An aliquot of the DMSO stock solution was removed and diluted in the SIF media in 15 mL falcon tubes to produce a mixture with a tested compound concentration of 1 μM. A 1 mL aliquot was immediately removed and diluted once with 1 volume of acetonitrile for T0 timepoint. The mixture was sealed and agitated at 37° C. in an incubator. Aliquots (1 mL) were removed at regular intervals and immediately quenched by the addition of 1 volume of acetonitrile. The resulting samples were analyzed by LC/MS to determine degradation rates

[3] = In vitro Colonic Material Stability Assay; assay type: in vitro ADME; conditions: colonic material slurry, anaerobic, 1 or 10 μM, 24 h
Experimental: Assay 3 In vitro Colonic Material Stability Assay. This assay was used to assess the stability of an acylated active agent in a large intestine. All experiments were performed in an anaerobic chamber containing 90% nitrogen, 5% hydrogen and 5% carbon dioxide. Colonic material was resuspended as a slurry (15% w/v final concentration) in pre-reduced, anaerobically sterilized dilution blanks (Anaerobe Systems AS-908). The colonic material was then inoculated into 96 well plates containing YCFAC media (Anaerobe Systems AS-680) or other suitable media (6.7 μL slurry into 1 mL total media). Compounds or groups of compounds were added to each individual well to reach a final analyte concentration of 1 or 10 μM, and the material was mixed by pipetting. Sample was removed after set timepoints (0, 120, 240, 480, 1440, 2880 minutes after initiation of the assay), quenched with acetonitrile containing internal standard, and analyzed by LC/MS.

E. coli BL21(DE3) = assay: Cell-based assay with ClbP with LCMS, ClbP negative strain; conditions: 10 μM compound, 37° C., 20 h
Summary of the method: (§1)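 Compound (10 μM final) incubated 20 h at 37° C, aerobically, with 1:40-diluted overnight cultures of ClbP-positive E. coli or negative BL21(DE3), in duplicate, alongside uninoculated LB. Remaining parent quantified by LC-MS/MS (MRM) after acetonitrile quench, expressed as percent of media-alone.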

[4] = tested on: E. coli CFT073 ATCC 700928 and/or E. coli Nissle 1917; assay: Cell-based assay with ClbP with LCMS, ClbP positive strain; conditions: ClbP-encoding E. coli, 10 μM compound, 37° C., 20 h
Summary of the method: as §1

Compound	Assay 1 (SGF) (% Remaining @ 1 hours) [1]	Assay 2 (SIF) (% @ Remaining 4 hours) [2]	Assay 3 (% Remaining at 24 h) [3]	% Remaining in ClbP Negative Relative to Media-Only (E. coli BL21(DE3))	% Remaining in ClbP Positve Relative to Media-Only [4]
COC(=O)[C@H](C)NC(=O)[C@@H](CC(N)=O)NC(=O)c1ccccc1O [Example 16, Methyl (2-hydroxybenzoyl)-D-asparaginyl-L-alaninate]	C (>75% of the tested compound remaining)	A (<25% of the tested compound remaining)	B (25-75% of the tested compound remaining)	+ (between 25-75% compound remaining in the 20 μM WT ClbP reaction relative to the no-enzyme control)	+ (between 25-75% compound remaining in the 20 μM WT ClbP reaction relative to the no-enzyme control)
COCCOCCC(=O)N[C@H](CC(N)=O)C(=O)N[C@@H](C)C(=O)OC [Example 61, Methyl (3-(2-methoxyethoxy)propanoyl)-D-asparaginyl-L-alaninate]	C (>75% of the tested compound remaining)	B (25-75% of the tested compound remaining)	C (>75% of the tested compound remaining)	− (>75% compound remaining in the 20 μM WT ClbP reaction relative to the no-enzyme control)	+ (between 25-75% compound remaining in the 20 μM WT ClbP reaction relative to the no-enzyme control)
COC(=O)[C@H](C)NC(=O)[C@@H](CC(N)=O)NC(=O)C(C)c1ccc(CC(C)C)cc1 (stereo partly drawn) [Example 17, Methyl (2-(4-isobutylphenyl)propanoyl)-D-asparaginyl-L-alaninate]	C (>75% of the tested compound remaining)	A (<25% of the tested compound remaining)	C (>75% of the tested compound remaining)	+ (between 25-75% compound remaining in the 20 μM WT ClbP reaction relative to the no-enzyme control)	+ (between 25-75% compound remaining in the 20 μM WT ClbP reaction relative to the no-enzyme control)
COC(=O)[C@H](C)NC(=O)[C@@H](CC(N)=O)NC(=O)Cc1ccccc1 [Example 14, Methyl (2-phenylacetyl)-D-asparaginyl-L-alaninate] (PhAc-[dN]-Ala-OMe)	C (>75% of the tested compound remaining)	A (<25% of the tested compound remaining)	C (>75% of the tested compound remaining)	− (>75% compound remaining in the 20 μM WT ClbP reaction relative to the no-enzyme control)	+ (between 25-75% compound remaining in the 20 μM WT ClbP reaction relative to the no-enzyme control)
CCCCCCCC(=O)N[C@H](CC(N)=O)C(=O)NCCCC(=O)OC [Example 43, Methyl (R)-4-(4-amino-2-octanamido-4-oxobutanamido)butanoate]	B (25-75% of the tested compound remaining)	B (25-75% of the tested compound remaining)	B (25-75% of the tested compound remaining)	− (>75% compound remaining in the 20 μM WT ClbP reaction relative to the no-enzyme control)	− (>75% compound remaining in the 20 μM WT ClbP reaction relative to the no-enzyme control)
